According to paper PMC4450297, “Screening Active Compounds from Garcinia Species Native to China Reveals Novel Compounds Targeting the STAT/JAK Signaling Pathway” (BioMed Research International, 2015):

Key:
Experiment in all cases: Cell panel screen (CellTiter-Glo)
Type in all cases: cell-based, human
A498 = A498 (listed under Lung), 20 micromolar, 72 hrs
Summary of the method: (§1)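 Tested once at 20 μM (final) over 72 h in cells cultured with 10% FBS. Luciferase/ATP luminescence read-out, background-corrected and normalised to vehicle controls.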

A704 = A704 (Kidney), 20 micromolar, 72 hrs
Summary of the method: as §1

BT-474 = BT-474 (Breast), 20 micromolar, 72 hrs
Summary of the method: as §1

BT-549 = BT-549 (Breast), 20 micromolar, 72 hrs
Summary of the method: as §1

Bel-7402 = Bel-7402 (Liver), 20 micromolar, 72 hrs
Summary of the method: as §1

C3A = C3A (Liver), 20 micromolar, 72 hrs
Summary of the method: as §1

C8166 = C8166 (Leukemia), 20 micromolar, 72 hrs
Summary of the method: as §1

CCF-STTG1 = CCF-STTG1 (Brain), 20 micromolar, 72 hrs
Summary of the method: as §1

CW-2 = CW-2 (Colon), 20 micromolar, 72 hrs
Summary of the method: as §1

ChaGo-K-1 = ChaGo-K-1 (Lung), 20 micromolar, 72 hrs
Summary of the method: as §1

Colo 205 = conditions: Colo 205, 20 micromolar, 72 hrs
Summary of the method: as §1

HCC1395 = HCC1395 (Breast), 20 micromolar, 72 hrs
Summary of the method: as §1

HCC1569 = HCC1569 (Breast), 20 micromolar, 72 hrs
Summary of the method: as §1

HCC1599 = HCC1599 (Breast), 20 micromolar, 72 hrs
Summary of the method: as §1

HCC1937 = HCC1937 (Breast), 20 micromolar, 72 hrs
Summary of the method: as §1

HEC-1-A = HEC-1-A (Uterus), 20 micromolar, 72 hrs
Summary of the method: as §1

HGC-27 = HGC-27 (Stomach), 20 micromolar, 72 hrs
Summary of the method: as §1

HPAF-II = HPAF-II (Pancreas), 20 micromolar, 72 hrs
Summary of the method: as §1

HT-1197 = HT-1197 (Urinary bladder), 20 micromolar, 72 hrs
Summary of the method: as §1

J82 = J82 (Urinary bladder), 20 micromolar, 72 hrs
Summary of the method: as §1

M059J = M059J (Brain), 20 micromolar, 72 hrs
Summary of the method: as §1

MSTO-211-H = MSTO-211-H (Lung), 20 micromolar, 72 hrs
Summary of the method: as §1

NCI-H1623 = NCI-H1623 (Lung), 20 micromolar, 72 hrs
Summary of the method: as §1

NCI-H1694 = NCI-H1694 (Lung), 20 micromolar, 72 hrs
Summary of the method: as §1

NCI-H1770 = NCI-H1770 (Lung), 20 micromolar, 72 hrs
Summary of the method: as §1

NCI-H2347 = NCI-H2347 (Lung), 20 micromolar, 72 hrs
Summary of the method: as §1

NCI-H2405 = NCI-H2405 (Lung), 20 micromolar, 72 hrs
Summary of the method: as §1

NCI-H28 = NCI-H28 (Lung), 20 micromolar, 72 hrs
Summary of the method: as §1

NCI-H524 = NCI-H524 (Lung), 20 micromolar, 72 hrs
Summary of the method: as §1

Panc 03.27 = Panc 03.27 (Pancreas), 20 micromolar, 72 hrs
Summary of the method: as §1

RL95 = RL95 (Uterus), 20 micromolar, 72 hrs
Summary of the method: as §1

SW13 = SW13 (Adrenal gland), 20 micromolar, 72 hrs
Summary of the method: as §1

T47D = T47D (Breast), 20 micromolar, 72 hrs
Summary of the method: as §1

T98G = T98G (Brain), 20 micromolar, 72 hrs
Summary of the method: as §1

TCCSUP = TCCSUP (Urinary bladder), 20 micromolar, 72 hrs
Summary of the method: as §1

ZR-75-30 = ZR-75-30 (Breast), 20 micromolar, 72 hrs
Summary of the method: as §1

SMILES	Percent Inhibition (A498) [%]	Percent Inhibition (A704) [%]	Percent Inhibition (BT-474) [%]	Percent Inhibition (BT-549) [%]	Percent Inhibition (Bel-7402) [%]	Percent Inhibition (C3A) [%]	Percent Inhibition (C8166) [%]	Percent Inhibition (CCF-STTG1) [%]	Percent Inhibition (CW-2) [%]	Percent Inhibition (ChaGo-K-1) [%]	Percent Inhibition (Colo 205) [%]	Percent Inhibition (HCC1395) [%]	Percent Inhibition (HCC1569) [%]	Percent Inhibition (HCC1599) [%]	Percent Inhibition (HCC1937) [%]	Percent Inhibition (HEC-1-A) [%]	Percent Inhibition (HGC-27) [%]	Percent Inhibition (HPAF-II) [%]	Percent Inhibition (HT-1197) [%]	Percent Inhibition (J82) [%]	also measured
CC(C)=CCc1c(O)cc2oc3c(c(=O)c2c1O)C(CC=C(C)C)(CC=C(C)C)C(=O)C(O)=C3 [bn-2, Allanxanthone C]	34	4	22	54	64	39	86	52	72	75	69	84	63	79	75	51	53	28	38	43	Percent Inhibition (M059J): 51%; Percent Inhibition (MSTO-211-H): 72%; Percent Inhibition (NCI-H1623): 49%; Percent Inhibition (NCI-H1694): 99%; Percent Inhibition (NCI-H1770): 90%; Percent Inhibition (NCI-H2347): 40%; Percent Inhibition (NCI-H2405): 40%; Percent Inhibition (NCI-H28): 52%; Percent Inhibition (NCI-H524): 97%; Percent Inhibition (Panc 03.27): 48%; Percent Inhibition (RL95): 70%; Percent Inhibition (SW13): 15%; Percent Inhibition (T47D): 54%; Percent Inhibition (T98G): 98%; Percent Inhibition (TCCSUP): 75%; Percent Inhibition (ZR-75-30): 86%
CC(C)=CCc1c2c(c(O)c3c(=O)c4c(CC=C(C)C)c(O)c(O)cc4oc13)C=CC(C)(C)O2 [bn-4, Bannaxanthone D]	84	94	83	96	94	63	96	86	97	93	93	96	92	97	89	76	86	73	89	94	Percent Inhibition (M059J): 90%; Percent Inhibition (MSTO-211-H): 94%; Percent Inhibition (NCI-H1623): 80%; Percent Inhibition (NCI-H1694): 97%; Percent Inhibition (NCI-H1770): 75%; Percent Inhibition (NCI-H2347): 53%; Percent Inhibition (NCI-H2405): 92%; Percent Inhibition (NCI-H28): 85%; Percent Inhibition (NCI-H524): 98%; Percent Inhibition (Panc 03.27): 88%; Percent Inhibition (RL95): 96%; Percent Inhibition (SW13): 94%; Percent Inhibition (T47D): 80%; Percent Inhibition (T98G): 97%; Percent Inhibition (TCCSUP): 92%; Percent Inhibition (ZR-75-30): 81%
CC(C)=CCc1c(O)c(O)cc2oc3cc(O)cc(O)c3c(=O)c12 [bn-10, 1,3,6,7-tetrahydroxy-8-(3-methylbut-2-enyl)xanthone]	25	-11	-3	-4	7	20	23	8	25	18	19	8	16	77	32	22	30	-2	8	29	Percent Inhibition (M059J): 9%; Percent Inhibition (MSTO-211-H): 4%; Percent Inhibition (NCI-H1623): -10%; Percent Inhibition (NCI-H1694): 28%; Percent Inhibition (NCI-H1770): 0%; Percent Inhibition (NCI-H2347): 9%; Percent Inhibition (NCI-H2405): -8%; Percent Inhibition (NCI-H28): 12%; Percent Inhibition (NCI-H524): -20%; Percent Inhibition (Panc 03.27): -1%; Percent Inhibition (RL95): 15%; Percent Inhibition (SW13): 11%; Percent Inhibition (T47D): 4%; Percent Inhibition (T98G): 21%; Percent Inhibition (TCCSUP): 33%; Percent Inhibition (ZR-75-30): 77%
